From ChEMBL document CHEMBL1146884, “Effect of lysine at C-terminus of the Dmt-Tic opioid pharmacophore” (J Med Chem, 2006) come the findings set out here.

In assay [1] the target is T1, Delta-type opioid receptor (Mus musculus, UniProt P32300). Nature of the assay: Agonist activity at delta opioid receptor assessed as inhibition of electrically-evoked contraction of mouse vas deferens. It counts as functional, tissue-based.
For assay [2], the target named is T2, Mu-type opioid receptor (Cavia porcellus, UniProt P97266). Nature of the assay: Agonist activity at mu opioid receptor assessed as inhibition of electrically-evoked contraction of guinea pig ileum. It counts as functional, tissue-based.
Assay [3] has as its target T1, Delta-type opioid receptor. Nature of the assay: Antagonist activity at delta opioid receptor assessed as inhibition of deltorphin-2-induced contraction of mouse vas deferens.
In assay [4] the target is Delta-type opioid receptor (Rattus norvegicus, UniProt P33533). Description: Displacement of [3H]deltorphin2 from delta opioid receptor in Sprague-Dawley rat brain P2 synaptosomal membrane.
Assay [5] deals with Mu-type opioid receptor (Rattus norvegicus, UniProt P33535). Nature of the assay: Displacement of [3H]DAMGO from mu opioid receptor in Sprague-Dawley rat brain P2 synaptosomal membrane. (In a radioligand displacement assay an active substance lowers the binding of a labelled ligand.)
For assay [6], the target named is Opioid receptors; mu & delta (Rattus norvegicus) (UniProt P33533+P33535). Description: Selectivity for delta opioid receptor over mu opioid receptor in Sprague-Dawley rat brain P2 synaptosomal membrane.
Assay [7] deals with T2, Mu-type opioid receptor. Description: Antagonist activity at mu opioid receptor assessed as inhibition of endomorphin-2-induced contraction of guinea pig ileum. It counts as functional, tissue-based. As to conditions: read-out: pA2 (converted).

Molecules are shown by their SMILES. Where a SMILES comes first, the peptide text is derived from it. [ ]: non-standard residue; d: D form. The star is where a group is joined. Dmt = Cc1cc(O)cc(C)c1C[C@H](N)C(=O)O; Tic = O=C(O)[C@@H]1Cc2ccccc2CN1; Cbz = O=C(OCc1ccccc1)*; NHBn = c1ccc(CN*)cc1; NHPh = c1ccc(N*)cc1

Opioid receptors; mu & delta (Rattus norvegicus), sequence (P33533 whole entry, looked up): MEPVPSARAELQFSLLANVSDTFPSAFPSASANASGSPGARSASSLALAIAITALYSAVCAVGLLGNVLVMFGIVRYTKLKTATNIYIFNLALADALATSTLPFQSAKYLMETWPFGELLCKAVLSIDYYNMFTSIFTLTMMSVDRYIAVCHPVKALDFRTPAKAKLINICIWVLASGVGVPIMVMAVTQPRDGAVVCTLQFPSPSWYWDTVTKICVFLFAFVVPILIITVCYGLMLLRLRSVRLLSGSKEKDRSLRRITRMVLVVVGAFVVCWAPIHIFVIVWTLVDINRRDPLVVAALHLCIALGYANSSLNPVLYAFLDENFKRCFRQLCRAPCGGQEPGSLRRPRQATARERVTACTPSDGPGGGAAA
Opioid receptors; mu & delta (Rattus norvegicus), sequence (P33535 whole entry, looked up): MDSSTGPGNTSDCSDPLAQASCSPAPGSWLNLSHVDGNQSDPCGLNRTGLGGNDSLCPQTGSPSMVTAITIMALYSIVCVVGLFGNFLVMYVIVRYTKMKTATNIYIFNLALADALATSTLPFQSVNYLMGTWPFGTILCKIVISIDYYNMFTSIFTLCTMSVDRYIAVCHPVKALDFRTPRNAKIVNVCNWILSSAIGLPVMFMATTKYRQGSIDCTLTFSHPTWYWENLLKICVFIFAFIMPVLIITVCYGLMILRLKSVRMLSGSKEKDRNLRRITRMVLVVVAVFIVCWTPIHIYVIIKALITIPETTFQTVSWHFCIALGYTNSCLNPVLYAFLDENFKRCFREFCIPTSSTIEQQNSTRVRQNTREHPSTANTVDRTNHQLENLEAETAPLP
Delta-type opioid receptor (Rattus norvegicus, UniProt P33533), sequence (P33533 whole entry): as the sequence (P33533 whole entry, looked up) above
T2 sequence (P97266 whole entry): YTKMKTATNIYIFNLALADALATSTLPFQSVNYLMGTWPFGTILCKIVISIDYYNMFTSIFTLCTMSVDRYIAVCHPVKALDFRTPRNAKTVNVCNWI
Mu-type opioid receptor (Rattus norvegicus, UniProt P33535), sequence (P33535 whole entry): as the sequence (P33535 whole entry, looked up) above
T1 sequence (P32300 whole entry): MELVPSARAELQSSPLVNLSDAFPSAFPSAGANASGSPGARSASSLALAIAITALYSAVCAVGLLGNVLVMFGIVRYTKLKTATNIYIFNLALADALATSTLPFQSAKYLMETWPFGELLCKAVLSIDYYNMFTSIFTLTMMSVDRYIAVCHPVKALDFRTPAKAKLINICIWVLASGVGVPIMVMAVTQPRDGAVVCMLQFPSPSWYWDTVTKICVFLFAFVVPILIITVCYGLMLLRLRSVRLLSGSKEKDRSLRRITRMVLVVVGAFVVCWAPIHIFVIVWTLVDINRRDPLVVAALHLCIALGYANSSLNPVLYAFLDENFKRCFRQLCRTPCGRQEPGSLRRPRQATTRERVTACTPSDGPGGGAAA

For the compound `CC(=O)NCCCC[C@H](NC(=O)[C@@H]1Cc2ccccc2CN1C(=O)[C@@H](N)Cc1c(C)cc(O)cc1C)C(=O)Nc1ccccc1` (H-[Dmt]-[Tic]-Lys(Ac)-NHPh), the IC50 – broadly, the concentration that inhibits the measured activity by half – in assay [1] was more than 10000 nM; on Mu-type opioid receptor [2], 1250 nM. In assay [3], the Kb is 0.001 nM. Moreover, the figures for the Ki (in assay [4]; at Mu-type opioid receptor [5]) were 0.13 nM and 0.63 nM, respectively. Also, the Ratio Ki in assay [6] was determined as 5.

As to `Cc1cc(O)cc(C)c1C[C@H](N)C(=O)N1Cc2ccccc2C[C@H]1C(=O)NCC(=O)O` (H-[Dmt]-[Tic]-Gly-OH), the Kb in assay [3] was 1.41 nM. Besides, the Ki (in general, the equilibrium dissociation constant of an inhibitor or competing ligand from its target) in assay [4] was determined as 1.38 nM; at Mu-type opioid receptor [5] it was 529 nM. In addition, in assay [6], the Ratio Ki was 383.

`Cc1cc(O)cc(C)c1C[C@H](N)C(=O)N1Cc2ccccc2C[C@H]1C(=O)N[C@@H](CCCCNC(=O)OCc1ccccc1)C(=O)Nc1ccccc1` (H-[Dmt]-[Tic]-Lys(Cbz)-NHPh): the IC50 is more than 10000 nM in assay [1] and 438 nM at Mu-type opioid receptor [2]. In addition, in assay [3], the Kb is 1700 nM. The Ki in assay [4] is 0.57 nM; at Mu-type opioid receptor [5], 1.47 nM. The Ratio Ki in assay [6] was 3.

As for `CC(=O)NCCCC[C@H](NC(=O)[C@@H]1Cc2ccccc2CN1C(=O)[C@@H](N)Cc1c(C)cc(O)cc1C)C(=O)NCc1ccccc1` (H-[Dmt]-[Tic]-Lys(Ac)-NHBn), the IC50 (in assay [1]; at Mu-type opioid receptor [2]) was more than 10000 nM in each case. Further, the Kb in assay [3] was 0.0398 nM; on Mu-type opioid receptor [7], 6.92 nM. For the same compound, the figures for the Ki (in assay [4]; at Mu-type opioid receptor [5]) were 0.068 nM and 5.5 nM, respectively. Moreover, in assay [6], the Ratio Ki was 81.

Regarding `Cc1cc(O)cc(C)c1C[C@H](N)C(=O)N1Cc2ccccc2C[C@H]1C(=O)N[C@@H](CCCCN)c1nc2ccccc2[nH]1`, the values for the IC50 (in assay [1]; at Mu-type opioid receptor [2]) were more than 10000 nM and 39.7 nM, respectively. Further, the results for the Ki (in assay [4]; at Mu-type opioid receptor [5]) were 0.49 nM and 0.16 nM, respectively.

Take `Cc1cc(O)cc(C)c1C[C@H](N)C(=O)N1Cc2ccccc2C[C@H]1C(=O)N[C@H](CCCCNC(=O)OCc1ccccc1)c1nc2ccccc2[nH]1`: the values for the IC50 (in assay [1]; on Mu-type opioid receptor [2]) were more than 10000 nM and 62.5 nM, respectively. For the same compound, the Kb in assay [3] is more than 10000 nM. Moreover, the Ki in assay [4] worked out at 0.4 nM; on Mu-type opioid receptor [5] it was 0.15 nM.

On to `CC(=O)NCCCC[C@H](NC(=O)[C@@H]1Cc2ccccc2CN1C(=O)[C@@H](N)Cc1c(C)cc(O)cc1C)c1nc2ccccc2[nH]1`, for which the values for the IC50 (in assay [1]; at Mu-type opioid receptor [2]) were more than 10000 nM and 53.9 nM, respectively. Further, the Ki in assay [4] amounted to 0.18 nM; at Mu-type opioid receptor [5], 0.13 nM.

For the compound `Cc1cc(O)cc(C)c1C[C@H](N)C(=O)N1Cc2ccccc2C[C@H]1C(=O)N[C@@H](CCCCN)C(=O)Nc1ccccc1` (H-[Dmt]-[Tic]-Lys-NHPh), the IC50 is more than 10000 nM in assay [1] and 1250 nM at Mu-type opioid receptor [2]. Moreover, in assay [3], the Kb is 4170 nM. For the same compound, the Ki was found to be 0.42 nM in assay [4] and 0.93 nM on Mu-type opioid receptor [5]. Further, in assay [6], the Ratio Ki turned out to be 2.

With `Cc1cc(O)cc(C)c1C[C@H](N)C(=O)N1Cc2ccccc2C[C@H]1C(=O)N[C@@H](CCCCNC(=O)OCc1ccccc1)c1nc2ccccc2[nH]1`, the IC50 was 9050 nM in assay [1] and 375 nM on Mu-type opioid receptor [2]. Also, in assay [3], the Kb was more than 10000 nM. Besides, the Ki in assay [4] amounted to 0.64 nM; at Mu-type opioid receptor [5], 0.37 nM.

With `Cc1cc(O)cc(C)c1C[C@H](N)C(=O)N1Cc2ccccc2C[C@H]1C(=O)N[C@@H](CCCCNC(=O)OCc1ccccc1)C(=O)NCc1ccccc1` (H-[Dmt]-[Tic]-Lys(Cbz)-NHBn), the IC50 (in assay [1]; on Mu-type opioid receptor [2]) was more than 10000 nM each time. Moreover, the Kb in assay [3] was 617 nM; on Mu-type opioid receptor [7] it was 1510 nM. Besides, the Ki in assay [4] worked out at 0.31 nM; on Mu-type opioid receptor [5], 4.41 nM. Further, the Ratio Ki in assay [6] turned out to be 14.

`Cc1cc(O)cc(C)c1C[C@H](N)C(=O)N1Cc2ccccc2C[C@H]1C(=O)N[C@@H](CCCCN)C(=O)NCc1ccccc1` (H-[Dmt]-[Tic]-Lys-NHBn): the IC50 (in assay [1]; at Mu-type opioid receptor [2]) was more than 10000 nM in each case. For the same compound, the Kb is 977 nM in assay [3] and 11 nM at Mu-type opioid receptor [7]. Also, the Ki in assay [4] was determined as 0.5 nM; on Mu-type opioid receptor [5], 4.05 nM. In assay [6], the Ratio Ki is 8.
